According to patent US20260356817A1, “AMINOPYRIMIDINE AND AMINOTRIAZINE DERIVATIVES AS MYC PROTEIN MODULATORS” (Sanford Burnham Prebys Medical Discovery Institute, priority 2022, published 2026):
pIC50: −log10 of the molar value. Where two headings read alike, the source gives them in different places.

System: Myc
Assay: Myc inhibition assay: Myc expression per cell by anti-Myc immunofluorescence, high-content imaging
Format: cell-based, human (patient-derived medulloblastoma xenograft cells)
Details: medulloblastoma PDX cells, 4 h
Summary of the method: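 Cells from Myc-driven medulloblastoma patient-derived orthotopic xenografts, propagated only in NSG mouse cerebellum, were dissociated and plated in serum-free medium. After overnight recovery, compounds were applied for 4 hours; cells were then fixed, stained for Myc and DAPI, and per-cell Myc quantified by high-content imaging to derive IC50.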

[1] = Table 1, read-out: IC50 (Myc inhibition)
[2] = Table 2, read-out: MYC Inhibition IC50

## c1cc(Nc2nccc(-c3ccc4[nH]cnc4c3)n2)cc(-c2cnco2)c1 [Compound 264, 4-(1H-benzo[d]imidazol-5-yl)-N-(3-(oxazol-5-yl)phenyl)pyrimidin-2-amine]
[1]
  pIC50: > 6.70
[2]
  pIC50: > 6.70

## CCOC(=O)CCc1cccc(Nc2nccc(-c3ccc4nc[nH]c4c3)n2)c1 [Compound 272, ethyl 3-(3-((4-(1H-benzo[d]imidazol-6-yl)pyrimidin-2-yl)amino)phenyl)propanoate]
[1]
  pIC50: 6.00 to 6.70
[2]
  pIC50: 6.00 to 6.70

## FC(F)(F)Oc1ccccc1Nc1nccc(-c2ccc3[nH]cnc3c2)n1 [Compound 79, 4-(1H-benzo[d]imidazol-5-yl)-N-(2-(trifluoromethoxy)phenyl)pyrimidin-2-amine]
[1]
  pIC50: 6.00 to 6.70
[2]
  pIC50: 6.00 to 6.70

## c1ccc(Nc2nccc(-c3ccc4[nH]cnc4c3)n2)cc1 [Compound 78, 4-(1H-benzo[d]imidazol-5-yl)-N-phenylpyrimidin-2-amine]
[1]
  pIC50: 5.00 to 6.00
[2]
  pIC50: 5.00 to 6.00

## c1cc(Nc2nccc(-c3ccc4[nH]cnc4c3)n2)cc(-c2ccncc2)c1 [Compound 43, 4-(1H-benzo[d]imidazol-5-yl)-N-(3-(pyridin-4-yl)phenyl)pyrimidin-2-amine]
[1]
  pIC50: > 6.70
[2]
  pIC50: > 6.70

## Cn1cnc2cc(-c3ccnc(Nc4cccc(C(F)(F)F)c4)n3)ccc21 [Compound 34, 4-(1-methyl-1H-benzo[d]imidazol-5-yl)-N-(3-(trifluoromethyl)phenyl)pyrimidin-2-amine]
[1]
  pIC50: 5.00 to 6.00
[2]
  pIC50: 5.00 to 6.00

## COc1cc(-c2ccnc(Nc3cc(F)cc(F)c3)n2)ccn1 [Compound 148, N-(3,5-difluorophenyl)-4-(2-methoxypyridin-4-yl)pyrimidin-2-amine]
[1]
  pIC50: 5.00 to 6.00
[2]
  pIC50: 5.00 to 6.00

## COc1cc(-c2ccnc(Nc3cccc(C(C)(C)C)c3)n2)ccn1 [Compound 150, N-(3-(tert-butyl)phenyl)-4-(2-methoxypyridin-4-yl)pyrimidin-2-amine]
[1]
  pIC50: 5.00 to 6.00
[2]
  pIC50: 5.00 to 6.00

## Cc1cccc(C)c1-c1cccc(Nc2nccc(-c3ccc4[nH]cnc4c3)n2)c1 [Compound 3, 4-(1H-benzo[d]imidazol-5-yl)-N-(2′,6′-dimethyl-[1,1′-biphenyl]-3-yl)pyrimidin-2-amine]
[1]
  pIC50: 5.00 to 6.00
[2]
  pIC50: 5.00 to 6.00

## COc1cc(-c2ccnc(Nc3cccc(OCCN)c3)n2)ccn1 [Compound 121, N-(3-(2-aminoethoxy)phenyl)-4-(2-methoxypyridin-4-yl)pyrimidin-2-amine]
[1]
  pIC50: 5.00 to 6.00
[2]
  pIC50: 5.00 to 6.00

## O=S(=O)(Nc1ccc(F)cc1)c1cccc(Nc2nccc(-c3ccc4[nH]cnc4c3)n2)c1 [Compound 36, 3-((4-(1H-benzo[d]imidazol-5-yl)pyrimidin-2-yl)amino)-N-(4-fluorophenyl)benzenesulfonamide]
[1]
  pIC50: 6.00 to 6.70
[2]
  pIC50: 6.00 to 6.70

## Cc1c(-c2ccnc(Nc3cccc(C(F)(F)F)c3)n2)ccc2[nH]cnc12 [Compound 125, 4-(4-methyl-1H-benzo[d]imidazol-5-yl)-N-(3-(trifluoromethyl)phenyl)pyrimidin-2-amine]
[1]
  pIC50: 5.00 to 6.00
[2]
  pIC50: 5.00 to 6.00

## Nc1ncc(-c2ccnc(Nc3cccc(C(F)(F)F)c3)n2)s1 [Compound 119, 5-(2-((3-(Trifluoromethyl)phenyl)amino)pyrimidin-4-yl)thiazol-2-amine]
[1]
  pIC50: > 6.70
[2]
  pIC50: > 6.70

## O=c1[nH]c2ccc(-c3ccnc(Nc4cccc(C(F)(F)F)c4)n3)cc2[nH]1 [Compound 116, 5-(2-((3-(trifluoromethyl)phenyl)amino)pyrimidin-4-yl)-1H-benzo[d]imidazol-2(3H)-one]
[1]
  pIC50: 4.00 to 5.00
[2]
  pIC50: 4.00 to 5.00

## COc1ccc(-c2ccnc(Nc3ccccc3)n2)cn1 [Compound 239, 4-(6-methoxypyridin-3-yl)-N-phenylpyrimidin-2-amine]
[1]
  pIC50: 4.00 to 5.00
[2]
  pIC50: 4.00 to 5.00

## N#Cc1cccc(Nc2nccc(-c3ccc4[nH]cnc4c3)n2)c1 [Compound 94, 3-((4-(1H-benzo[d]imidazol-5-yl)pyrimidin-2-yl)amino)benzonitrile]
[1]
  pIC50: 5.00 to 6.00
[2]
  pIC50: 5.00 to 6.00

## COc1cc(-c2ccnc(Nc3ccccc3F)n2)ccn1 [Compound 208, N-(2-fluorophenyl)-4-(2-methoxypyridin-4-yl)pyrimidin-2-amine]
[1]
  pIC50: 4.00 to 5.00
[2]
  pIC50: 4.00 to 5.00

## Oc1cc(-c2ccnc(Nc3cccc(F)c3F)n2)ccn1 [Compound 205, 4-(2-((2,3-difluorophenyl)amino)pyrimidin-4-yl)pyridin-2-ol]
[1]
  pIC50: 5.00 to 6.00
[2]
  pIC50: 5.00 to 6.00

## CC(=O)c1cccc(Nc2nccc(-c3ccc4[nH]cnc4c3)n2)c1 [Compound 256, 1-(3-((4-(1H-benzo[d]imidazol-5-yl)pyrimidin-2-yl)amino)phenyl)ethan-1-one]
[1]
  pIC50: > 6.70
[2]
  pIC50: > 6.70

## COc1cc(-c2ccnc(Nc3ccncc3)n2)ccn1 [Compound 197, 4-(2-methoxypyridin-4-yl)-N-(pyridin-4-yl)pyrimidin-2-amine]
[1]
  pIC50: 5.00 to 6.00
[2]
  pIC50: 5.00 to 6.00

## CCN(CC)C(=O)c1cccc(Nc2nccc(-c3ccc4[nH]cnc4c3)n2)c1 [Compound 19, 3-((4-(1H-benzo[d]imidazol-5-yl)pyrimidin-2-yl)amino)-N,N-diethylbenzamide]
[1]
  pIC50: 6.00 to 6.70
[2]
  pIC50: 6.00 to 6.70

## Fc1ccc(Nc2nccc(-c3ccc4[nH]cnc4c3)n2)cc1 [Compound 81, 4-(1H-benzo[d]imidazol-5-yl)-N-(4-fluorophenyl)pyrimidin-2-amine]
[1]
  pIC50: 6.00 to 6.70
[2]
  pIC50: 6.00 to 6.70

## Cc1ccc(Nc2nccc(-c3ccc4[nH]cnc4c3)n2)cc1C(F)(F)F [Compound 265, 4-(1H-benzo[d]imidazol-5-yl)-N-(4-methyl-3-(trifluoromethyl)phenyl)pyrimidin-2-amine]
[1]
  pIC50: > 6.70
[2]
  pIC50: > 6.70

## c1ccc(-n2cc(Nc3nccc(-c4ccc5[nH]cnc5c4)n3)cn2)cc1 [Compound 39, 4-(1H-benzo[d]imidazol-5-yl)-N-(1-phenyl-1H-pyrazol-4-yl)pyrimidin-2-amine]
[1]
  pIC50: > 6.70
[2]
  pIC50: > 6.70

## CS(=O)(=O)c1cccc(Nc2nccc(-c3ccc4[nH]cnc4c3)n2)c1 [Compound 27, 4-(1H-benzo[d]imidazol-5-yl)-N-(3-(methylsulfonyl)phenyl)pyrimidin-2-amine]
[1]
  pIC50: > 6.70
[2]
  pIC50: > 6.70

## COc1cc(-c2ccnc(Nc3cc(C(F)(F)F)ccn3)n2)ccn1 [Compound 166, 4-(2-methoxypyridin-4-yl)-N-(4-(trifluoromethyl)pyridin-2-yl)pyrimidin-2-amine]
[1]
  pIC50: 4.00 to 5.00
[2]
  pIC50: 4.00 to 5.00

## CC(C)n1cnc2ccc(-c3ccnc(Nc4cccc(F)c4)n3)cc21 [Compound 277A, N-(3-fluorophenyl)-4-(1-isopropyl-1H-benzo[d]imidazol-6-yl)pyrimidin-2-amine]
[1]
  pIC50: > 6.70

## COC(=O)c1cccc(Nc2nccc(-c3ccnc(O)c3)n2)c1 [Compound 185, methyl 3-((4-(2-hydroxypyridin-4-yl)pyrimidin-2-yl)amino)benzoate]
[1]
  pIC50: 5.00 to 6.00
[2]
  pIC50: 5.00 to 6.00

## Fc1cc(Nc2nccc(-c3ccc4[nH]cnc4c3)n2)cc(F)c1F [Compound 258, 4-(1H-benzo[d]imidazol-5-yl)-N-(3,4,5-trifluorophenyl)pyrimidin-2-amine]
[1]
  pIC50: > 6.70
[2]
  pIC50: > 6.70

## O=C(c1cccc(Nc2nccc(-c3ccc4[nH]cnc4c3)n2)c1)N1CCCC1 [Compound 17, (3-((4-(1H-benzo[d]imidazol-5-yl)pyrimidin-2-yl)amino)phenyl)(pyrrolidin-1-yl)methanone]
[1]
  pIC50: 4.00 to 5.00
[2]
  pIC50: 4.00 to 5.00

## CCCc1cccc(Nc2nccc(-c3cnc4nc[nH]c4c3)n2)c1 [Compound 133, 4-(1H-imidazo[4,5-b]pyridin-6-yl)-N-(3-propylphenyl)pyrimidin-2-amine]
[1]
  pIC50: > 6.70
[2]
  pIC50: > 6.70

## Oc1cncc(-c2ccnc(Nc3ccccc3)n2)c1 [Compound 219, 5-(2-(phenylamino)pyrimidin-4-yl)pyridin-3-ol]
[1]
  pIC50: 5.00 to 6.00
[2]
  pIC50: 5.00 to 6.00

## c1cnc(-n2cc(Nc3nccc(-c4ccc5[nH]cnc5c4)n3)cn2)nc1 [Compound 20, 4-(1H-benzo[d]imidazol-5-yl)-N-(1-(pyrimidin-2-yl)-1H-pyrazol-4-yl)pyrimidin-2-amine]
[1]
  pIC50: 6.00 to 6.70
[2]
  pIC50: 6.00 to 6.70

## Oc1ccnc(-c2ccnc(Nc3cccc(F)c3)n2)c1 [Compound 182, 2-(2-((3-fluorophenyl)amino)pyrimidin-4-yl)pyridin-4-ol]
[1]
  pIC50: 5.00 to 6.00
[2]
  pIC50: 5.00 to 6.00

## Fc1cccc(Nc2nccc(-c3cnc4nc[nH]c4c3)n2)c1 [Compound 151, N-(3-fluorophenyl)-4-(1H-imidazo[4,5-b]pyridin-6-yl)pyrimidin-2-amine]
[1]
  pIC50: > 6.70
[2]
  pIC50: > 6.70

## Cc1cccc(Nc2nccc(-c3ccnc(O)c3)n2)c1 [Compound 159, 4-(2-(m-tolylamino)pyrimidin-4-yl)pyridin-2-ol]
[1]
  pIC50: 6.00 to 6.70
[2]
  pIC50: 6.00 to 6.70

## COc1ccc(-c2ccnc(Nc3cccc(F)c3)n2)cn1 [Compound 214, N-(3-fluorophenyl)-4-(6-methoxypyridin-3-yl)pyrimidin-2-amine]
[1]
  pIC50: 4.00 to 5.00
[2]
  pIC50: 4.00 to 5.00

## Oc1cc(-c2ccnc(Cc3ccccc3)n2)ccn1 [Compound 229, 4-(2-Benzylpyrimidin-4-yl)pyridin-2-ol]
[1]
  pIC50: 4.00 to 5.00
[2]
  pIC50: 4.00 to 5.00

## FC(F)(F)c1cccc(Nc2nccc(N3CCc4[nH]cnc4C3)n2)c1 [Compound 112, 4-(1,4,6,7-tetrahydro-5H-imidazo[4,5-c]pyridin-5-yl)-N-(3-(trifluoromethyl)phenyl)pyrimidin-2-amine]
[1]
  pIC50: 5.00 to 6.00
[2]
  pIC50: 5.00 to 6.00

## FC(F)(F)c1cccc(Nc2nccc(-c3ccc4[nH]ccc4c3)n2)c1 [Compound 152, 4-(1H-indol-5-yl)-N-(3-(trifluoromethyl)phenyl)pyrimidin-2-amine]
[1]
  pIC50: 5.00 to 6.00
[2]
  pIC50: 5.00 to 6.00

## COc1cccc(-c2ccnc(Nc3ccccc3)c2)c1 [Compound 246, 4-(3-Methoxyphenyl)-N-phenylpyridin-2-amine]
[1]
  pIC50: 4.00 to 5.00
[2]
  pIC50: 4.00 to 5.00
